Reference: patent US12209071B2, “Triazine derivatives for treating diseases relating to neurotrophins” (AlzeCure Pharma AB, priority 2018, dated 2025)

Legend:
TrkA = biological target: T1, TrkA (Homo sapiens, UniProt P04629); experiment: Enzyme Fragment Complementation cell-based assay, TrkA; conditions: U2OS-cells over-expressing TrkA; ligand 10 ng/mL; 3 hours incubation
T1 construct: expressed in transfected cells; host or cells: U2OS
Text: (§1) A high throughput cell-based screen has been used to identify positive modulators of TrkA, TrkB and TrkC. The screen involves the use of cell-based assay overexpressing TrkA, TrkB or TrkC. The purpose of the assay is to identify compounds that modulate neurotrophin signalling (Forsell et al 2012). The assay can be used in inhibitor mode using a high concentration of ligand, in modulator mode using an intermediate concentration and in agonist mode using a low concentration of ligand.
(§2) The assay uses Enzyme Fragment Complementation (EFC) technique, which is a proximity-based assay. Briefly, cells used in this assay over-express two fusion proteins, i.e. the receptor, which can be either one of TrkA, TrkB, TrkC, IGF1R or FGFR1, fused to a small peptide of beta-galactosidase and an adaptor protein, i.e. SHC1 (or any other Trk-adaptor protein) fused to the major part of beta-galactosidase. […] The proximity between the small activating peptide on the receptor and the major part of beta-galactosidase on the adaptor protein leads to an active beta-galactosidase enzyme. The activation of the receptor is quantified by measuring the amount of active beta-galactosidase by its conversion of a non-luminescent substrate into a luminescent product.
(§3) U2OS-cells, over-expressing TrkA or TrkB or TrkC, are plated in 96- or 384-well plates and incubated overnight. Alternatively, cryopreserved HEK293-cells expressing IGFR1 or cryopreserved U2OS-cells expressing FGFR1 were plated in 96- or 384-well plates. On the following day, test compound was pre-mixed with ligand (NGF, BDNF, NT-3, IGF-1 or basic fibroblast growth factor (bFGF(FGF-2))) and the ligand-compound mixture is then added to the cells to yield a final ligand concentration of 10 ng/mL. After 3 hours of incubation at room temperature, the incubation is stopped by the addition of a beta-galactosidase substrate mixture containing detergents. The substrate mixture is incubated for 60 minutes at ambient temperature. The luminescence is thereafter read by the use of a plate reader.

TrkB = biological target: T2, TrkB (Homo sapiens, UniProt Q16620); experiment: Enzyme Fragment Complementation cell-based assay, TrkB; conditions: U2OS-cells over-expressing TrkB; ligand 10 ng/mL; 3 hours incubation
T2 construct: expressed in transfected cells; host or cells: U2OS
Text: as §1, §2, §3

T2 sequence (Q16620 32-822): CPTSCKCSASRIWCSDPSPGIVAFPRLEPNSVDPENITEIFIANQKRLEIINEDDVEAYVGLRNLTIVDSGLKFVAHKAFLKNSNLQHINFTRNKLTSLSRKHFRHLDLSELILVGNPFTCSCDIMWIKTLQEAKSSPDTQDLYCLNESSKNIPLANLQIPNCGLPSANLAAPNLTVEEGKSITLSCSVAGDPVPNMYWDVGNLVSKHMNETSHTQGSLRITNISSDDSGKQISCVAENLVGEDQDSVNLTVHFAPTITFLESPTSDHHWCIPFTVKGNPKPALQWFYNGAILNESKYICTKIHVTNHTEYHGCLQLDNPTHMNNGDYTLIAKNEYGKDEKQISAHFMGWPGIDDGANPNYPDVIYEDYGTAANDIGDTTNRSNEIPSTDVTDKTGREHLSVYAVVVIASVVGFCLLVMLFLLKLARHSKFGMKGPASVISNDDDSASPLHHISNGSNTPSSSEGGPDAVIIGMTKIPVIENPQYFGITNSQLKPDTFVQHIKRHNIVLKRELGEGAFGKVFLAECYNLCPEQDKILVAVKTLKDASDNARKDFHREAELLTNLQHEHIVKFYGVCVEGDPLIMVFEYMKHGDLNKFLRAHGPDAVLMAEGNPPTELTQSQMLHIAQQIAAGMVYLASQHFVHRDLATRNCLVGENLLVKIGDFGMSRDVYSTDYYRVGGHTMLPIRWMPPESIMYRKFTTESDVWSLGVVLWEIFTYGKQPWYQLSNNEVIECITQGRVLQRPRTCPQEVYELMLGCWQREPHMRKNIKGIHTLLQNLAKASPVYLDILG
T1 sequence (P04629 33-796): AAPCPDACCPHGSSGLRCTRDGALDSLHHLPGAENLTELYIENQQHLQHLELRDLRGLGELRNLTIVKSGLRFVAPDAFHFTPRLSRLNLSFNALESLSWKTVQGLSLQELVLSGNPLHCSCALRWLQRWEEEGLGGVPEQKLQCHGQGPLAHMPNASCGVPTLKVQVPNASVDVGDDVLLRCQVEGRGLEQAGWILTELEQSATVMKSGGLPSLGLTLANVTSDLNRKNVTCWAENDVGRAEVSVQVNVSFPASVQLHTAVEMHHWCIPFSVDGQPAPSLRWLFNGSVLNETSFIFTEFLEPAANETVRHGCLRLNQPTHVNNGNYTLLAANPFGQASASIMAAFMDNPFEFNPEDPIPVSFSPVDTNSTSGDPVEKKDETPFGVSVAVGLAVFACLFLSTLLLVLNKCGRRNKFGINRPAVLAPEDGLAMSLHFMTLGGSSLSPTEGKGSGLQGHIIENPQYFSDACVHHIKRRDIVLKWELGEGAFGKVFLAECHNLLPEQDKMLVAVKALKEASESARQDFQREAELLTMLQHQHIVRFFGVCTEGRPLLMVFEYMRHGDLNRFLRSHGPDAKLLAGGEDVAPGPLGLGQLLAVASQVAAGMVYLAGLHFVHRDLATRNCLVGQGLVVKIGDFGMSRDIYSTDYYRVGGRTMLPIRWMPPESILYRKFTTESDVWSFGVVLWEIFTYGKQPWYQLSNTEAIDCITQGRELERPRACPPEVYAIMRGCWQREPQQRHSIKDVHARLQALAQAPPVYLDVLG

| SMILES | EC50 (TrkA) | EC50 (TrkB) |
| --- | --- | --- |
| COc1ccc(-n2c(=O)[nH]c(=O)n(-c3ccc(Oc4ccccc4)cc3)c2=O)cc1 [Example 2, 1-(4-methoxyphenyl)-3-(4-phenoxyphenyl)-1,3,5-triazinane-2,4,6-trione] | 1400 nM | 2400 nM |
| N#Cc1cccc(-n2c(=O)[nH]c(=O)n(-c3ccc(Oc4ccccc4)cc3)c2=O)c1 [Example 3, 3-[2,4,6-trioxo-3-(4-phenoxyphenyl)-1,3,5-triazinan-1-yl]benzonitrile] | 6700 nM | – |
| COc1cc(Oc2ccccc2)c(C)cc1-n1c(=O)[nH]c(=O)n(-c2ccccc2)c1=O [Example 13, 1-(2-methoxy-5-methyl-4-phenoxyphenyl)-3-phenyl-1,3,5-triazinane-2,4,6-trione] | 620 nM | 450 nM |
| COc1cc(-n2c(=O)[nH]c(=O)n(-c3ccccc3)c2=O)cc(C)c1Oc1ccccc1 [Example 14, 1-(3-methoxy-5-methyl-4-phenoxyphenyl)-3-phenyl-1,3,5-triazinane-2,4,6-trione] | 490 nM | – |
| Cc1cc(-n2c(=O)[nH]c(=O)n(-c3ccccn3)c2=O)ccc1Oc1ccccc1 [Example 18, 1-(3-methyl-4-phenoxyphenyl)-3-(pyridin-2-yl)-1,3,5-triazinane-2,4,6-trione] | 870 nM | 140 nM |
| O=c1[nH]c(=O)n(-c2ccc3c(cnn3-c3ccccc3)c2)c(=O)n1-c1ccccc1 [Example 19, 1-phenyl-3-(1-phenyl-1H-indazol-5-yl)-1,3,5-triazinane-2,4,6-trione] | 820 nM | 880 nM |
| Cn1c(=O)[nH]c(=O)n(-c2ccc3c(cnn3-c3ccccc3)c2)c1=O [Example 31, 1-methyl-3-(1-phenyl-1H-indazol-5-yl)-1,3,5-triazinane-2,4,6-trione] | 46000 nM | 69000 nM |
| COc1cc(-n2c(=O)[nH]c(=O)n(C)c2=O)cc(C)c1Oc1ccccc1 [Example 32, 1-(3-methoxy-5-methyl-4-phenoxyphenyl)-3-methyl-1,3,5-triazinane-2,4,6-trione] | 800 nM | – |
| COc1c(-n2c(=O)[nH]c(=O)n(-c3ccccc3)c2=O)ccc(Oc2ccccc2)c1C [Example 33, 1-(2-methoxy-3-methyl-4-phenoxyphenyl)-3-phenyl-1,3,5-triazinane-2,4,6-trione] | 230 nM | 100 nM |
| Cc1cc(-n2c(=O)[nH]c(=O)n(-c3ccccc3)c2=O)ccc1Cc1ccccc1 [Example 42, 1-(4-benzyl-3-methylphenyl)-3-phenyl-1,3,5-triazinane-2,4,6-trione] | 190 nM | 280 nM |
| Cc1cc(-n2c(=O)[nH]c(=O)n(-c3cccc(Cl)c3)c2=O)ccc1Oc1ccccc1 [Example 43, 1-(3-chlorophenyl)-3-(3-methyl-4-phenoxyphenyl)-1,3,5-triazinane-2,4,6-trione] | 160 nM | 120 nM |
| Cc1cc(-n2c(=O)[nH]c(=O)n(-c3cccc(OC(F)(F)F)c3)c2=O)ccc1Oc1ccccc1 [Example 44, 1-(3-methyl-4-phenoxyphenyl)-3-[3-(trifluoromethoxy)phenyl]-1,3,5-triazinane-2,4,6-trione] | 330 nM | 260 nM |
| Cc1cc(-n2c(=O)[nH]c(=O)n(-c3ccc(F)cc3)c2=O)ccc1Oc1ccccc1 [Example 45, 1-(4-fluorophenyl)-3-(3-methyl-4-phenoxyphenyl)-1,3,5-triazinane-2,4,6-trione] | 470 nM | 360 nM |
| Cc1cc(-n2c(=O)[nH]c(=O)n(-c3ccc4occc4c3)c2=O)ccc1Oc1ccccc1 [Example 46, 1-(1-benzofuran-5-yl)-3-(3-methyl-4-phenoxyphenyl)-1,3,5-triazinane-2,4,6-trione] | 480 nM | 240 nM |
| Cc1cc(-n2c(=O)[nH]c(=O)n(-c3ccc4[nH]ccc4c3)c2=O)ccc1Oc1ccccc1 [Example 47, 1-(1H-indol-5-yl)-3-(3-methyl-4-phenoxyphenyl)-1,3,5-triazinane-2,4,6-trione] | 480 nM | 270 nM |
| Cc1cc(-n2c(=O)[nH]c(=O)n(-c3ccc4c(c3)OCO4)c2=O)ccc1Oc1ccccc1 [Example 48, 1-(2H-1,3-benzodioxol-5-yl)-3-(3-methyl-4-phenoxyphenyl)-1,3,5-triazinane-2,4,6-trione] | 500 nM | 260 nM |
| COc1cccc(-n2c(=O)[nH]c(=O)n(-c3ccc(Oc4ccccc4)c(C)c3)c2=O)c1 [Example 50, 1-(3-methoxyphenyl)-3-(3-methyl-4-phenoxyphenyl)-1,3,5-triazinane-2,4,6-trione] | 310 nM | 190 nM |
| COc1ccccc1-n1c(=O)[nH]c(=O)n(-c2ccc(Oc3ccccc3)c(C)c2)c1=O [Example 51, 1-(2-methoxyphenyl)-3-(3-methyl-4-phenoxyphenyl)-1,3,5-triazinane-2,4,6-trione] | 180 nM | 260 nM |
| COc1cccc(-n2c(=O)[nH]c(=O)n(-c3ccc(Oc4ccccc4)c(OC)c3)c2=O)c1 [Example 52, 1-(3-methoxy-4-phenoxyphenyl)-3-(3-methoxyphenyl)-1,3,5-triazinane-2,4,6-trione] | 380 nM | 410 nM |
| COc1ccc(-n2c(=O)[nH]c(=O)n(-c3ccc(Oc4ccccc4)c(OC)c3)c2=O)cc1 [Example 53, 1-(3-methoxy-4-phenoxyphenyl)-3-(4-methoxyphenyl)-1,3,5-triazinane-2,4,6-trione] | 960 nM | 780 nM |
| Cc1cc(-n2c(=O)[nH]c(=O)n(-c3ccccc3)c2=O)c(C)cc1Oc1ccccc1 [Example 54, 1-(2,5-dimethyl-4-phenoxyphenyl)-3-phenyl-1,3,5-triazinane-2,4,6-trione] | 440 nM | 310 nM |

Continued, values first:

| EC50 (TrkA) | EC50 (TrkB) | SMILES |
| --- | --- | --- |
| 390 nM | 1400 nM | Cc1cc(-n2c(=O)[nH]c(=O)n(C)c2=O)ccc1Oc1ccccc1 [Example 55, 1-methyl-3-(3-methyl-4-phenoxyphenyl)-1,3,5-triazinane-2,4,6-trione] |
| 300 nM | 220 nM | COCCOc1cc(-n2c(=O)[nH]c(=O)n(-c3ccc(OC)cc3)c2=O)ccc1Oc1ccccc1 [Example 60, 1-[3-(2-methoxyethoxy)-4-phenoxyphenyl]-3-(4-methoxyphenyl)-1,3,5-triazinane-2,4,6-trione] |
| 420 nM | 380 nM | COCCOc1cc(-n2c(=O)[nH]c(=O)n(-c3cccc(OC)c3)c2=O)ccc1Oc1ccccc1 [Example 61, 1-[3-(2-methoxyethoxy)-4-phenoxyphenyl]-3-(3-methoxyphenyl)-1,3,5-triazinane-2,4,6-trione] |
| 930 nM | 3180 nM | Cc1ccccc1Oc1ccc(-n2c(=O)[nH]c(=O)n(-c3ccccc3)c2=O)cc1C [Example 62, 1-[3-methyl-4-(2-methylphenoxy)phenyl]-3-phenyl-1,3,5-triazinane-2,4,6-trione] |
| 2380 nM | 950 nM | Cc1cc(-n2c(=O)[nH]c(=O)n(-c3cscn3)c2=O)ccc1Oc1ccccc1 [Example 63, 1-(3-methyl-4-phenoxyphenyl)-3-(1,3-thiazol-4-yl)-1,3,5-triazinane-2,4,6-trione] |
| 370 nM | 370 nM | COCCOc1cc(-n2c(=O)[nH]c(=O)n(-c3ccc(C)s3)c2=O)ccc1Oc1ccccc1 [Example 66, 1-[3-(2-methoxyethoxy)-4-phenoxyphenyl]-3-(5-methylthiophen-2-yl)-1,3,5-triazinane-2,4,6-trione] |
| 3200 nM | 26000 nM | Cc1cc(-n2c(=O)[nH]c(=O)n(-c3ccc(Oc4ccccc4)c(C)c3)c2=O)ccc1Oc1ccccc1 [Example 67, 1,3-bis(3-methyl-4-phenoxyphenyl)-1,3,5-triazinane-2,4,6-trione] |
| 660 nM | 350 nM | Cc1cc(Oc2ccccc2)ccc1-n1c(=O)[nH]c(=O)n(-c2ccccc2)c1=O [Example 70, 1-(2-methyl-4-phenoxyphenyl)-3-phenyl-1,3,5-triazinane-2,4,6-trione] |
| 1660 nM | 610 nM | Cc1ccc(-n2c(=O)[nH]c(=O)n(-c3ccc(Oc4ccccc4)cc3C)c2=O)cc1 [Example 71, 1-(2-methyl-4-phenoxyphenyl)-3-(4-methylphenyl)-1,3,5-triazinane-2,4,6-trione] |
| 200 nM | 110 nM | Cc1cc(-n2c(=O)[nH]c(=O)n(-c3cccc4occc34)c2=O)ccc1Oc1ccccc1 [Example 72, 1-(1-benzofuran-4-yl)-3-(3-methyl-4-phenoxyphenyl)-1,3,5-triazinane-2,4,6-trione] |
| 140 nM | 100 nM | Cc1cc(-n2c(=O)[nH]c(=O)n(-c3cccc4ccoc34)c2=O)ccc1Oc1ccccc1 [Example 73, 1-(1-benzofuran-7-yl)-3-(3-methyl-4-phenoxyphenyl)-1,3,5-triazinane-2,4,6-trione] |
